# Experiments:
# Test in all cases: relative viability (nuclei count vs DMSO), 5 days (fraction); higher = more cells survive
# [1] = compound: CCN(CC)CCNC(=O)c1c(C)[nH]c(/C=C2\C(=O)Nc3ccc(F)cc32)c1C [Sunitinib] + CC1(C)CCC(c2ccc(Cl)cc2)=C(CN2CCN(c3ccc(C(=O)NS(=O)(=O)c4ccc(N[C@H](CCN5CCOCC5)CSc5ccccc5)c(S(=O)(=O)C(F)(F)F)c4)cc3)CC2)C1 [Navitoclax] (partner 0.5 µM)
# In short: (§1)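 Relative viability is defined as nuclei in treated wells over nuclei in vehicle wells. Duplicate plates were run and medians reported. Lung cancer cell lines in 1536-well plates were dosed by pin tool one day after seeding, with one drug or with a fixed anchor-drug dose plus five library-drug doses (not always all listed) in √10 steps, and nuclei were counted after 5 days.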
# [2] = compound: CCN(CC)CCNC(=O)c1c(C)[nH]c(/C=C2\C(=O)Nc3ccc(F)cc32)c1C [Sunitinib] + C[C@]1(O)C[C@@H](c2nc(-c3ccc4ccc(-c5ccccc5)nc4c3)c3c(N)nccn32)C1 [Linsitinib] (partner 1 µM)
# In short: as §1
# [3] = compound: CCN(CC)CCNC(=O)c1c(C)[nH]c(/C=C2\C(=O)Nc3ccc(F)cc32)c1C [Sunitinib] + Nc1nc2[nH]cc(CCc3ccc(C(=O)N[C@@H](CCC(=O)O)C(=O)O)cc3)c2c(=O)[nH]1 [Pemetrexed] (partner 0.2 µM)
# In short: as §1
# [4] = compound: CCN(CC)CCNC(=O)c1c(C)[nH]c(/C=C2\C(=O)Nc3ccc(F)cc32)c1C [Sunitinib] + O=C(CCCCCCC(=O)Nc1ccccc1)NO [Vorinostat] (partner 1 µM)
# In short: as §1
Cell Line,relative viability ([1]; first compound 0.02 µM),relative viability ([1]; first compound 0.06325 µM),relative viability ([1]; first compound 0.2 µM),relative viability ([1]; first compound 0.6325 µM),relative viability ([1]; first compound 2 µM),relative viability ([2]; first compound 0.02 µM),relative viability ([2]; first compound 0.06325 µM),relative viability ([2]; first compound 0.2 µM),relative viability ([2]; first compound 0.6325 µM),relative viability ([2]; first compound 2 µM),relative viability ([3]; first compound 0.02 µM),relative viability ([3]; first compound 0.06325 µM),relative viability ([3]; first compound 0.2 µM),relative viability ([3]; first compound 0.6325 µM),relative viability ([3]; first compound 2 µM),relative viability ([4]; first compound 0.02 µM),relative viability ([4]; first compound 0.06325 µM),relative viability ([4]; first compound 0.2 µM),relative viability ([4]; first compound 0.6325 µM),relative viability ([4]; first compound 2 µM)
201T,1.19,1.18,1.21,1.18,1.2,1,0.941,1.06,1.09,1.04,0.32,0.325,0.356,0.301,0.355,0.932,1.05,1.02,0.954,0.965
A-427,0.954,0.987,0.999,1,1.12,1.1,1.18,1.12,1.15,1.12,0.993,1,0.95,0.997,1.01,0.871,0.915,0.912,0.887,0.898
ABC-1,,,,,,1.03,0.766,0.855,0.923,0.718,,,,,,1.22,1.38,1.05,1.09,
BEN,0.0567,0.0707,0.072,0.0591,0.0799,,0.862,1.07,0.951,0.896,0.812,0.862,,0.742,0.74,0.535,0.637,0.571,0.574,0.533
CAL-12T,1.18,1.32,1.44,1.36,1.36,0.807,0.82,1.2,1.06,1.01,1.06,1.17,1.17,,1.34,0.541,0.864,1.04,0.902,0.682
COR-L23,0.966,1.08,1.04,1.21,1.15,0.902,1.1,1,1.02,0.999,0.207,0.196,0.196,0.199,0.216,0.457,0.515,0.484,0.464,0.503
COR-L 105,0.752,0.868,0.832,0.921,0.959,1.02,0.994,0.839,1.15,1.03,1.08,1.01,1.1,1.14,1.22,0.856,0.646,0.817,0.797,0.744
Calu-6,0.896,0.772,0.923,0.972,0.914,0.874,1.08,,1.08,0.981,,,,,,,,,,
ChaGo-K-1,0.911,1.02,0.978,0.914,0.936,,,,,,0.263,0.268,0.258,0.255,0.258,0.736,0.831,0.887,0.773,0.746
EBC-1,0.467,0.472,0.417,0.557,0.626,0.9,0.972,1.01,0.993,0.957,,,,,,,,,,
EKVX,0.608,0.595,1.13,,0.968,1.07,1.04,1.18,1.12,1.06,0.373,0.383,0.425,0.416,0.406,0.802,,0.882,0.806,0.728
EMC-BAC-2,1.15,,1.31,1.09,1.22,0.769,0.817,0.896,0.865,0.778,0.427,0.426,0.472,0.481,0.464,0.458,0.464,0.506,0.506,0.505
EPLC-272H,1.09,1.2,1.38,1.12,0.921,1.27,1.1,1.15,1.09,0.93,0.39,0.298,0.314,0.42,0.363,0.512,0.479,0.424,0.397,0.555
H3255,0.477,0.52,0.634,0.548,0.519,0.884,1.02,,1.01,1.03,0.557,0.558,0.567,0.552,0.612,0.672,0.573,0.835,0.827,0.822
HARA,1.05,1.18,1.16,1.18,1.2,0.948,0.978,1.14,0.956,0.858,0.26,0.274,0.241,0.222,0.263,0.525,0.518,0.687,0.441,0.553
HCC-15,0.705,0.765,,0.744,0.691,0.803,0.838,0.928,0.902,0.86,0.236,0.228,0.222,0.204,0.248,0.905,0.93,0.984,0.789,0.85
HCC-44,0.96,0.964,1.05,0.946,0.969,0.641,0.757,0.772,0.665,0.727,0.615,0.607,0.676,0.68,0.692,1.15,1.09,1.15,1.09,1.14
HCC-78,0.756,,0.684,,0.869,0.472,,0.501,,0.565,0.914,0.927,0.949,0.93,,0.427,0.418,0.531,0.481,0.465
HCC-366,0.963,1.06,,1.05,0.971,0.512,0.619,0.606,0.628,0.571,0.154,0.168,0.168,0.194,0.497,0.326,0.388,0.487,0.442,0.468
HCC-827,1.01,1.05,1.04,1.01,0.978,0.971,0.887,0.98,1,0.936,0.265,0.29,0.28,0.584,0.289,0.843,0.861,0.668,0.875,0.714

Cell Line,relative viability ([1]; first compound 0.02 µM),relative viability ([1]; first compound 0.06325 µM),relative viability ([1]; first compound 0.2 µM),relative viability ([1]; first compound 0.6325 µM),relative viability ([1]; first compound 2 µM),relative viability ([2]; first compound 0.02 µM),relative viability ([2]; first compound 0.06325 µM),relative viability ([2]; first compound 0.2 µM),relative viability ([2]; first compound 0.6325 µM),relative viability ([2]; first compound 2 µM),relative viability ([3]; first compound 0.02 µM),relative viability ([3]; first compound 0.06325 µM),relative viability ([3]; first compound 0.2 µM),relative viability ([3]; first compound 0.6325 µM),relative viability ([3]; first compound 2 µM),relative viability ([4]; first compound 0.02 µM),relative viability ([4]; first compound 0.06325 µM),relative viability ([4]; first compound 0.2 µM),relative viability ([4]; first compound 0.6325 µM),relative viability ([4]; first compound 2 µM)
HOP-62,1.09,1.16,1.17,1.09,0.942,0.968,1.23,1.18,1.1,1.11,0.33,0.366,0.337,0.369,0.417,0.675,0.876,0.744,0.761,0.838
IA-LM,0.767,0.912,0.929,0.872,0.814,0.558,0.719,,0.561,0.94,,,,,,0.975,0.864,0.987,0.952,1.03
LC-2-ad,0.381,0.495,0.714,0.406,0.355,0.839,0.918,0.89,0.844,0.677,0.266,0.275,0.291,0.303,0.26,0.673,0.767,0.774,0.799,0.698
LCLC-97TM1,0.465,0.402,,0.401,0.323,0.176,0.197,,0.213,0.191,0.167,0.198,0.164,0.163,0.212,0.638,0.943,0.713,0.887,0.768
LCLC-103H,,,,,,0.987,1.02,1.11,1.1,1.08,0.452,0.443,0.487,0.442,0.445,0.778,0.918,0.868,0.827,0.867
LK-2,0.737,0.963,1.12,0.862,0.836,0.504,0.516,0.658,0.712,0.637,0.266,0.335,0.31,0.254,0.292,0.259,0.391,0.311,0.253,0.413
NCI-H358,,,,,,0.718,0.685,0.863,0.592,0.447,0.178,0.181,0.177,0.177,0.167,0.588,0.684,0.79,0.77,0.419
NCI-H522,,,,,,,,,,,0.861,1.12,0.915,0.858,0.999,0.831,1.04,0.927,0.922,1.05
NCI-H650,,,,,,0.9,0.912,1.09,,1.08,0.877,0.958,0.914,1.05,1.01,0.382,0.439,0.423,0.55,0.395
NCI-H661,,,,,,0.488,0.513,0.496,0.572,0.598,0.882,0.958,0.915,0.978,0.943,0.751,0.78,0.826,0.817,0.839
NCI-H727,0.433,0.45,0.454,0.523,0.396,0.146,0.363,0.239,0.311,0.292,,,,,,1.12,1.22,1.18,1.18,1.25
NCI-H1299,1.03,1.11,1.05,1.03,1.09,0.922,,1.05,0.998,1.05,,,,,,,,,,
NCI-H1563,,,,,,1.27,1.23,1.23,1.21,1.22,0.759,0.727,0.782,0.721,0.852,,,,,
NCI-H1648,,,,,,,,,,,0.897,0.737,0.898,0.704,0.835,0.58,0.465,0.356,0.338,0.442
NCI-H1650,1.48,1.18,1.4,1.34,1.33,,,,,,0.399,0.307,0.411,0.346,0.448,0.558,0.606,0.752,0.659,0.582
NCI-H1703,0.621,0.264,0.289,0.254,0.184,0.51,0.18,0.257,0.174,0.17,,,,,,,,,,
NCI-H1792,0.664,,0.777,0.537,0.66,0.556,0.479,0.419,0.511,0.561,0.619,0.942,1.26,1.21,0.775,,,,,
NCI-H2170,0.607,0.681,0.572,0.651,0.445,,,,,,0.259,0.274,0.432,0.291,0.275,0.78,0.826,0.927,0.842,0.709
NCI-H2342,,,,,,,,,,,0.731,0.821,0.808,0.739,0.843,0.622,0.918,0.794,0.724,0.889
SW 900,,,,,,,,,,,0.466,0.495,0.491,0.5,0.501,0.516,0.626,0.541,0.604,0.597
